Reference: patent publication US4452814A, “Nitrosourea derivatives” (priority 1981, dated 1984)

Experiments:
[1] = system: experimental leukemia and tumors; conditions: wide variety of experimental leukemia and tumors; cited from earlier work
[2] = Acute toxicity (LD50) in BDF1 male mice, i.p. or i.v., Litchfield-Wilcoxon's method; type: in vivo; conditions: BDF1 male mice about 6 weeks old, observed after 21 days
Excerpt: The nitrosourea derivatives of formulae (I), (II) and (III) according to this invention are further characterized by their low toxicity. Thus, acute toxicity represented by LD50 of some typical compounds of formula (I), when administered intraperitoneally (i.p.) or intravenously (i.v.) to BDF1 male mice aged about 6-weeks old and observed after the lapse of 21 days according to Litchfield-Wilcoxon's method, is as follows: […]

Leukemia L 1210 cells = assay: Antileukemic activity on Leukemia L 1210 in mice (i.p. inoculated, compound i.p.); type: in vivo, Male BDF1 mice; conditions: for Mean survival days, treated: control 7.7
Procedure: Antileukemic activity of a typical nitrosourea derivative of formula (I) according to this invention was tested on Leukemia L 1210 in mice, details of which are given below.
Male BDF1 mice, aged about 7 weeks old and weighing 22±1 g were used in groups of five animals for each test.
Leukemia L 1210 cells were inoculated intraperitoneally in a concentration of 1×10^6 cells/0.05 ml/mouse.
The test compound was dissolved in a physiological salt solution to give a series of solutions in predetermined concentrations and 0.1 ml of the each solution was administered intraperitoneally to each mouse once a day from the 24th hour after the tumor cell inoculation for 3 consecutive days. The antileukemic activity of the test compound was assessed by mean survival days and percentage increase in life-span. The percentage increase in life-span (ILS) was calculated as follows: [formula] T: The mean survival days of the treated animals C: The mean survival days of the untreated animals
The control test for this purpose was carried out in the same way as that used for the test compound except that 0.1 ml of the physiological salt solution was administered in place of the solution of the test compound.

[3] = 0.5 mg/kg i.p. once a day for 3 days
[4] = 1 mg/kg i.p. once a day for 3 days
[5] = 2 mg/kg i.p. once a day for 3 days
[6] = 8 mg/kg i.p. once a day for 3 days
[7] = 16 mg/kg i.p. once a day for 3 days

Compound: O=NN(CCCl)C(=O)N[C@H]1[C@H](O)CCC[C@@H]1O [DONU, 1-(2-chloroethyl)-3-(1,3/2N-dihydroxycyclohexyl)-1-nitrosourea]
- antitumor activity, in words [1]: broad spectrum of antitumor activity

Compound: NC(=O)C1CCCN1C(=O)N(CCCl)N=O (stereo not drawn) [N-[N'-(2-chloroethyl)-N'-nitrosocarbamoyl]-proline amide]
- LD50 ([2]; i.p.): 219.6 mg/kg
- LD50 ([2]; i.v.): 195.4 mg/kg

Compound: O=NN(CCCl)C(=O)N[C@@H]1O[C@H](CO)[C@@H](O)[C@H](O)[C@H]1O [GANU, 1-(2-chloroethyl)-3-(β-D-glucopyranosyl)-1-nitrosourea]
- antitumor activity, in words [1]: broad spectrum of antitumor activity

Compound: NC(=O)CNC(=O)N(CCCl)N=O [N-[N'-(2-chloroethyl)-N'-nitrosocarbamoyl]glycine amide]
- ILS (percentage increase in life-span) (Leukemia L 1210 cells; [3]): 32.5%
- Mean survival days, treated (Leukemia L 1210 cells; [3]): 10.2 days
- ILS (percentage increase in life-span) (Leukemia L 1210 cells; [4]): 37.7%
- Mean survival days, treated (Leukemia L 1210 cells; [4]): 10.6 days
- ILS (percentage increase in life-span) (Leukemia L 1210 cells; [5]): 81.8%
- Mean survival days, treated (Leukemia L 1210 cells; [5]): 14.0 days
- ILS (percentage increase in life-span) (Leukemia L 1210 cells; [6]): > 679.2%
- Mean survival days, treated (Leukemia L 1210 cells; [6]): > 60.0 days
- ILS (percentage increase in life-span) (Leukemia L 1210 cells; [7]): > 679.2%
- Mean survival days, treated (Leukemia L 1210 cells; [7]): > 60.0 days
- LD50 ([2]; i.v.): 22.4 mg/kg
- LD50 at 504 h ([2]; mouse, in vivo, ip): 21.2 mg/kg

Compound: CN(CC(N)=O)C(=O)N(CCCl)N=O [N-[N'-(2-chloroethyl)-N'-nitrosocarbamoyl]sarcosine amide]
- LD50 ([2]; i.p.): 392.0 mg/kg
- LD50 ([2]; i.v.): 426.6 mg/kg
